Paper PMC9558510 (Cancers, 2022)

How the values were obtained:
[1] = set-up: method as in PMID 32283865; conditions: popPK model population value; cited from earlier work
[2] = Observed steady-state serum concentrations (LC-MS/MS) in melanoma patients; assay type: in vivo, human; conditions: for effect of co-medication with at least one P-gp inducer on individual mean trough concentrations / serum Cmin mean / serum Cmin median: standard dose
Experimental: Serum samples were collected regularly during each routine outpatient visit from study enrollment until January 2022 or until treatment discontinuation. If possible, blood sampling was performed before the next drug administration, but any time interval between the last administration and blood withdrawal was accepted. The steady-state was assumed after continuous dosing for fourteen days for both compounds.
Hydroxy-dabrafenib concentrations were analyzed using a different previously published LC-MS/MS method with an LLOQ of 10 ng/mL [37]. […] Hydroxy-dabrafenib was not quantified in capillary blood samples as the methodology was not available at the time of analysis. All the methods have been validated according to the guidelines of the U.S. Food and Drug Administration and/or the European Medicines Agency.
Data were collected and processed using Microsoft Excel 2016 Version 16.0 (Microsoft Corporation, Redmond, WA, USA). Statistical calculations and visualization of results were performed with R Studio Version 1.2.5042 (RStudio Incorporation, Boston, MA, USA) running R version 4.0.5 (R Foundation for Statistical Computing, Vienna, Austria, 2020). For further analysis, serum concentrations were divided into groups according to time interval post-dose as follows: 0–5 h, 5–10 h, 10–14 h, and >14 h for (hydroxy-)dabrafenib and 0–10 h, 10–20 h, 20–30 h, and >30 h for trametinib. Concentrations < LLOQ were excluded from further statistical analyses. The concentrations of the same patient at the same dosage and within the same post-dose group were summarized into an individual mean serum concentration for descriptive statistical analysis to account for potential bias caused by the unbalanced number of samples per patient. […] The Wilcoxon […] test was used for unpaired samples. The correlations between individual PK parameters sampled from the conditional distribution during the generation of EBE (methods for estimation see below) and age, sex, body mass index (BMI), and co-medication were analyzed using analysis of variance (ANOVA) and Spearman’s correlation coefficient. Logistic regression was used to compare the risk of treatment discontinuations or dose reductions (dabrafenib dose reduction or discontinuation, trametinib dose reduction or discontinuation, or any dose reduction or discontinuation) with the corresponding predicted trough concentrations and area under the curve of a dosing interval (AUCτ) of dabrafenib, hydroxy-dabrafenib, and trametinib as well as with the composite predicted dabrafenib/hydroxy-dabrafenib trough concentration and with composite dabrafenib/hydroxy-dabrafenib AUCτ assuming standard dosing. The Hosmer–Lemeshow test was used to evaluate the goodness of fit for our logistic regression model. Due to the explorative nature of the study, p-values obtained from multiple comparisons were not corrected for multiple testing. A p-value < 0.05 was considered statistically significant.

[3] = serum, dabrafenib dose of 150 mg q12h

effect of co-medication with at least one P-gp inducer on individual mean trough concentrations ([2]; serum)	serum Cmin mean ([2]; BMI (kg/m2) < 30) [ng/mL]	serum Cmin median ([2]; BMI (kg/m2) < 30) [ng/mL]	serum Cmin mean ([2]; BMI (kg/m2) >= 30) [ng/mL]	serum Cmin median ([2]; BMI (kg/m2) >= 30) [ng/mL]	serum Cmin mean ([2]; P-gp inducer: no) [ng/mL]	serum Cmin median ([2]; P-gp inducer: no) [ng/mL]	serum Cmin mean ([2]; P-gp inducer: yes) [ng/mL]	serum Cmin median ([2]; P-gp inducer: yes) [ng/mL]	serum Cmin mean ([2]; P-gp inhibitor: no) [ng/mL]	serum Cmin median ([2]; P-gp inhibitor: no) [ng/mL]	serum Cmin mean ([2]; P-gp inhibitor: yes) [ng/mL]	serum Cmin median ([2]; P-gp inhibitor: yes) [ng/mL]	serum Cmin mean ([2]; PPI: no) [ng/mL]	serum Cmin median ([2]; PPI: no) [ng/mL]	Compound	CENT (central compartment) volume [1] [L]	CL/F (oral clearance from central compartment) [1] [L/h]	PER (peripheral compartment) volume [1] [L]	Tlag (lag time before beginning of absorption process) [1] [h]	ka (absorption rate constant) [1] [h⁻¹]	other results
no effect	46.5	42.9	69.1	54	60.9	48	40.4	41.8	77.8	52.9	42.4	41.8	63.1	51.6	CC(C)(C)c1nc(-c2cccc(NS(=O)(=O)c3c(F)cccc3F)c2F)c(-c2ccnc(N)n2)s1 [dabrafenib]	39.5	17.7	19.6	0.5	1.8	median of individual mean trough concentration [2, 3]: 45.0 ng/mL; range of individual mean trough concentration [2, 3]: 20 to 155 ng/mL; serum Cmin mean ([2]; PPI: yes): 32.4 ng/mL; serum Cmin median ([2]; PPI: yes): 32.4 ng/mL; serum Cmin mean ([2]; age above 65: no): 54.9 ng/mL; serum Cmin median ([2]; age above 65: no): 43.5 ng/mL; serum Cmin mean ([2]; age above 65: yes): 51.9 ng/mL; serum Cmin median ([2]; age above 65: yes): 42.9 ng/mL; serum Cmin mean ([2]; moderate CYP2C8 inhibitor: no): 58.9 ng/mL; serum Cmin median ([2]; moderate CYP2C8 inhibitor: no): 44.3 ng/mL; serum Cmin mean ([2]; moderate CYP2C8 inhibitor: yes): 46.9 ng/mL; serum Cmin median ([2]; moderate CYP2C8 inhibitor: yes): 47.4 ng/mL; serum Cmin mean ([2]; sex female): 75.5 ng/mL; serum Cmin median ([2]; sex female): 52.9 ng/mL; serum Cmin mean ([2]; sex male): 36.5 ng/mL; serum Cmin median ([2]; sex male): 39.3 ng/mL
significant decrease	11.2	11.4	9.93	9.79	11.5	11.7	9.3	9.68	10.9	11.3	10.5	10.9	10.8	11.5	CC(=O)Nc1cccc(-n2c(=O)n(C3CC3)c(=O)c3c(Nc4ccc(I)cc4F)n(C)c(=O)c(C)c32)c1 [trametinib]	61.9	5.83	417	0.709	0.913	median of mean trough concentration ([2]; serum, 2 mg q24h): 11.2 ng/mL; range of mean trough concentration ([2]; serum, 2 mg q24h): 6.22 to 15.9 ng/mL; serum Cmin mean ([2]; PPI: yes): 10.7 ng/mL; serum Cmin median ([2]; PPI: yes): 10.9 ng/mL; serum Cmin mean ([2]; age above 65: no): 10.6 ng/mL; serum Cmin median ([2]; age above 65: no): 11.3 ng/mL; serum Cmin mean ([2]; age above 65: yes): 10.9 ng/mL; serum Cmin median ([2]; age above 65: yes): 10.9 ng/mL; serum Cmin mean ([2]; sex female): 11.1 ng/mL; serum Cmin median ([2]; sex female): 11.3 ng/mL; serum Cmin mean ([2]; sex male): 10.6 ng/mL; serum Cmin median ([2]; sex male): 11.2 ng/mL
